{
  "source": "patent US20190175534A1",
  "about": "“PHARMACEUTICAL COMPOSITIONS COMPRISING DGLA AND USE OF SAME” (DS Biopharma Limited, priority 2016, published 2019)",
  "key": {"[1]": {"system": "patients with moderate to severe atopic dermatitis", "test": "Phase II study of oral DS107G: eosinophil concentrations and responders by ethnicity", "assay_type": "in vivo, human", "conditions": "for Patients classified as Responders: IGA 0 or 1 at Week 8 with 2-point decrease", "method": "The primary endpoint can be translated as a responder analysis where a subject is classified as Responder if he/she achieves an IGA score of 0 (clear) or 1 (almost clear) at Week 8, considering a 2-point decrease from baseline. The comparison between groups for the primary endpoint was done using a Cochran-Mantel-Haenszel test, with site included as a stratification factor. A supportive analysis was performed using a Fisher's exact test. The primary efficacy analysis was done using observed values and a supportive analysis was conducted using the last observation carried forward (LOCF) approach. The analyses was done using the ITT population and served as the primary analysis, while the analysis of the primary endpoint using the PP population was used as a sensitivity analysis.\nA surprising discovery was observed when the data was further interrogated.\nEosinophils are a type of white blood cell that play an important role in the body's response to allergic reactions, asthma, and infection with parasites. Eosinophils usually account for less than 7% of the circulating white blood cells (100 to 500 eosinophils per microliter of blood). These cells have a role in the protective immunity against certain parasites but also contribute to the inflammation that occurs in allergic disorders.\nFIG. 30A-B. In particular, 56% of DS107-treated African America patients were classified as Responders, versus only 7% of Caucasian patients. FIG. 31A-B. As discussed in detail above, a subject is classified as a Responder if he/she achieves an IGA score of 0 (clear) or 1 (almost clear) at Week 8, considering a 2-point decrease from baseline. FIG. 32 depicts the same data for eosinophil concentrations in all Responders in the total population (FIG. 32A) and for DS107 treated patients (FIG. 32B) and placebo treated patients (FIG. 32C). […] FIG. 33A-C. […] FIGS. 34A-C and FIGS. 35A-C."}, "[2]": {"system": "patients with moderate to severe atopic dermatitis", "test": "Phase II study of oral DS107G: safety", "assay_type": "in vivo, human", "conditions": "oral 2 g once daily 8 weeks", "source_text": "Subjects visited the clinic on 6 occasions: at screening, baseline, week 2, week 4, week 8 (end of treatment/early termination) and week 10 (follow-up). All subjects exited the study at the week 10 visit. The primary efficacy variable was the proportion of patients achieving an IGA of 0 (clear) or 1 (almost clear), and a decrease of at least 2 points in IGA at week 8. Secondary efficacy variables included: IGA at other visits, pruritus (obtained from the SCORAD visual analog scale), EASI, BSA, POEM, DLQI, SCORAD and TEWL (for selected sites only). Safety was assessed through adverse events, physical examination, vital signs and safety laboratory tests (including pregnancy tests for women of childbearing potential), Pharmacokinetic samples were obtained at Baseline (Day 0), week 4 and week 8 visits in order to measure total and free DGLA plasma trough levels. Separate plasma samples were retained for later analysis of total fatty acid profile and interleukin profile.\nLaboratory tests were performed at screening, Day 0, Week 4 and Week 8. If Week 8 results indicated a clinically significant change from baseline, laboratory tests were also performed at Week 10. […]\nEfficacy was evaluated on the basis of the ITT population and analyses were performed based on the randomized treatment and not on the treatment received. […]"}, "[3]": {"test": "Phase 1 multiple-dose (28 days) plasma pharmacokinetics of free and total DGLA, incl. steady state", "assay_type": "in vivo, human", "conditions": "for Peak Trough Fluctuation (PTF), free DGLA, mean: steady state Day 28 (0-24 hours); for Peak Trough Fluctuation (PTF), mean (Table 29, total DGLA): steady-state Day 28 (0-24 hours)", "method": "Multiple dose part two of the study comprised two cohorts (Cohorts five and six) of eight subjects each, who were administered multiple doses of study drug in the fasted state for 28 days. Subjects in Cohorts five and six received DS107G at 2000 or 4000 mg, respectively, or matching placebo once daily for 28 days. Cohort six was started after Cohort five's safety data were evaluated by the SMC. No interim analysis was planned. […]\nIn Part two of the study (Cohorts five and six), subjects were administered study drug (500-mg DS107G capsules or matching placebo capsules) once daily in the fasted state for 28 days. Subjects in Cohort five received study drug first and, if they tolerated the 2000-mg daily dose for the first 14 days, subjects in Cohort six were started on the 4000-mg daily dose for 28 days.\nPK parameter was computed after correcting the dosed DGLA concentrations with baseline DGLA concentrations."}, "[4]": {"system": "healthy male and female subjects", "test": "Phase 1 study safety and tolerability (single and multiple dose)", "conditions": "for Tolerability: healthy volunteers", "procedure": "Screening procedures were conducted for both parts one and two before the start of the study on Day −1 (Baseline) by evaluating the safety assessments.\nSubjects were monitored throughout their confinement at the Phase 1 unit for adverse reactions to the study drug and/or procedures.\nSafety analyses were performed on the safety population tabulated by treatment arm, cohort, and visit. All safety data were characterized by descriptive statistical tools. […] Evaluation of safety assessments was performed in a descriptive manner. Continuous variables were characterized by their mean, standard deviation (SD), median, minimum and maximum values; discrete variables were characterized by their absolute (frequency) and relative (percentage) distribution."}, "[5]": {"test": "Phase 1 multiple-dose skin blister fluid concentrations of free and total DGLA", "assay_type": "in vivo, human", "source_text": "The PK of DGLA in human skin following multiple doses of DS107G capsule given once daily for 28 days to healthy subjects."}, "[6]": {"conditions": "first value printed for the two dose cohorts (2000 mg assumed)"}, "[7]": {"conditions": "second value printed for the two dose cohorts (4000 mg assumed)"}},
  "data": [
    {"compound": "CCCCC/C=C\\C/C=C\\C/C=C\\CCCCCCC(=O)O", "note": "[DGLA, Dihomo gamma linolenic acid]", "values": [
      {"measurement": "Patients classified as Responders", "setting": "[1]; African America patients", "value": 56, "unit": "%"},
      {"measurement": "Patients classified as Responders", "setting": "[1]; Caucasian patients", "value": 7, "unit": "%"},
      {"measurement": "Response rate in subjects having low baseline eosinophil counts", "setting": "[1]; in vivo", "value": "higher response rate"},
      {"measurement": "Drug related Serious Adverse Events", "setting": "[2]", "value": "no drug related Serious Adverse Events"},
      {"measurement": "Tolerability", "setting": "[2]", "value": "very well tolerated"},
      {"measurement": "Mean accumulation ratio (AR) for AUC, free DGLA", "setting": "[3]; 2000 mg daily", "value": "~3.3"},
      {"measurement": "Mean accumulation ratio (AR) for Cmax, free DGLA", "setting": "[3]; 2000 mg daily", "value": "~2.8"},
      {"measurement": "Mean accumulation ratio (AR) for AUC, free DGLA", "setting": "[3]; 4000 mg daily", "value": "~1.6"},
      {"measurement": "Mean accumulation ratio (AR) for Cmax, free DGLA", "setting": "[3]; 4000 mg daily", "value": "~1.4"},
      {"measurement": "Time at which plasma concentrations reach steady-state (free and total DGLA)", "setting": "[3]; 2000 and 4000 mg daily", "value": "~14", "unit": "days"},
      {"measurement": "Mean baseline-corrected free DGLA AUC0-24, 4000 mg over 2000 mg dose", "setting": "[3]; Day 1", "value": "~2.5", "unit": "fold"},
      {"measurement": "Mean baseline-corrected free DGLA Cmax, 4000 mg over 2000 mg dose", "setting": "[3]; Day 1", "value": "~3", "unit": "fold"},
      {"measurement": "Mean baseline-corrected total DGLA AUC0-24, 4000 mg over 2000 mg dose", "setting": "[3]; Day 1", "value": "~1.5", "unit": "fold"},
      {"measurement": "Mean baseline-corrected total DGLA Cmax, 4000 mg over 2000 mg dose", "setting": "[3]; Day 1", "value": "~1.5", "unit": "fold"},
      {"measurement": "Mean baseline-corrected free DGLA AUC0-24, 4000 mg over 2000 mg dose", "setting": "[3]; Day 28", "value": "~1.7", "unit": "fold"},
      {"measurement": "Mean baseline-corrected free DGLA Cmax, 4000 mg over 2000 mg dose", "setting": "[3]; Day 28", "value": "~1.4", "unit": "fold"},
      {"measurement": "Mean baseline-corrected total DGLA AUC0-24, 4000 mg over 2000 mg dose", "setting": "[3]; Day 28", "value": "~1.4", "unit": "fold"},
      {"measurement": "Mean baseline-corrected total DGLA Cmax, 4000 mg over 2000 mg dose", "setting": "[3]; Day 28", "value": "~1.2", "unit": "fold"},
      {"measurement": "Time of peak mean concentration of free DGLA after dosing", "setting": "[3]; Days 1 and 28, 2000 and 4000 mg daily", "value": "about 4 hours"},
      {"measurement": "Increase of average concentration at steady state, free DGLA, dose doubled from 2000 to 4000 mg daily", "setting": "[3]; in vivo", "value": 1.6, "unit": "fold"},
      {"measurement": "Increase of average concentration at steady state, total DGLA, dose doubled from 2000 to 4000 mg daily", "setting": "[3]; in vivo", "value": 1.2, "unit": "fold"},
      {"measurement": "Peak Trough Fluctuation (PTF), free DGLA, mean", "setting": "[3]; [6]", "value": "~430", "unit": "%"},
      {"measurement": "Peak Trough Fluctuation (PTF), free DGLA, mean", "setting": "[3]; [7]", "value": "~490", "unit": "%"},
      {"measurement": "Peak Trough Fluctuation (PTF), mean (Table 29, total DGLA)", "setting": "[3]; [6]", "value": 62.5, "unit": "%"},
      {"measurement": "Peak Trough Fluctuation (PTF), mean (Table 29, total DGLA)", "setting": "[3]; [7]", "value": 44.9, "unit": "%"},
      {"measurement": "Tolerability", "setting": "[4]; 2000- or 4000-mg once daily for 28 consecutive days", "value": "tolerated well"},
      {"measurement": "Deaths", "setting": "[4]; multi-dose study", "value": "no deaths"},
      {"measurement": "Severe TEAEs", "setting": "[4]; multiple dose", "value": "no severe TEAEs"},
      {"measurement": "Total number of TEAEs among active-treated subjects", "setting": "[4]; multiple dose", "value": 52},
      {"measurement": "Proportion of subjects reporting diarrhea", "setting": "[4]; multiple dose, 2000-mg group (3/6)", "value": 50, "unit": "%"},
      {"measurement": "Proportion of subjects reporting diarrhea", "setting": "[4]; multiple dose, 4000-mg group (4/6)", "value": 66.7, "unit": "%"},
      {"measurement": "Subjects reporting nausea", "setting": "[4]; multiple dose, 4000-mg treatment group (10 events among 4/6)", "value": 66.7, "unit": "%"},
      {"measurement": "Incidence of TEAEs among active-treated subjects", "setting": "[4]; multiple dose, 11/12 subjects", "value": 91.73, "unit": "%"},
      {"measurement": "Tolerability", "setting": "[4]; single dose 500, 1000, 2000 or 4000 mg", "value": "well tolerated"},
      {"measurement": "Incidence of diarrhea (loose stool), active-treated subjects", "setting": "[4]; single dose, 5/24 subjects", "value": 20.8, "unit": "%"},
      {"measurement": "Mean total DGLA concentration in skin blister fluid, Day 28 over Day 1", "setting": "[5]; 2000 mg daily", "value": "about 2.5 fold"},
      {"measurement": "Mean total DGLA concentration in skin blister fluid, Day 28 over Day 1", "setting": "[5]; 4000 mg daily", "value": "~3", "unit": "fold"},
      {"measurement": "Increase of mean total DGLA concentrations in skin blister fluid with a doubling in dose", "setting": "[5]; Days 1, 8, 14 and 28", "value": "about 1.4 fold"},
      {"measurement": "Mean free DGLA concentrations in skin blister fluid with a doubling in dose", "setting": "[5]; Days 1, 8, 14 and 28, 2000 vs 4000 mg daily", "value": "approximately doubled"},
      {"measurement": "Mean free DGLA concentration in skin blister fluid, Day 28 over Day 1", "setting": "[5]; both 2000 and 4000 mg daily", "value": "about 3 fold"},
      {"measurement": "Mean concentrations of free DGLA in plasma versus skin blister fluid", "setting": "[5]; same dose, Day 8 and Day 14 (but not Day 28)", "value": "somewhat similar"},
      {"measurement": "Mean concentrations of total DGLA in plasma versus skin blister fluid", "setting": "[5]; same dose, after Day 1", "value": "much higher in plasma than in skin blister fluid"}
    ]}
  ]
}
